Reference: ChEMBL document CHEMBL3992494, “Amaryllidaceae alkaloids with new framework types from Zephyranthes candida as potent acetylcholinesterase inhibitors” (Eur J Med Chem, 2017)
pIC50: −log10 of the molar value. The source made the active and inactive calls. The calls are words filed in the database; no cut-off is given here.

Experiments:
[1] = molecular target: Acetylcholinesterase (Electrophorus electricus) (UniProt O42275); test: Inhibition of electric eel AChE at 200 uM using acetylthiocholine iodide as substrate measured every minute for fifteen minutes by Ellman's method
Acetylcholinesterase (Electrophorus electricus), sequence (O42275 24-633 limits assumed): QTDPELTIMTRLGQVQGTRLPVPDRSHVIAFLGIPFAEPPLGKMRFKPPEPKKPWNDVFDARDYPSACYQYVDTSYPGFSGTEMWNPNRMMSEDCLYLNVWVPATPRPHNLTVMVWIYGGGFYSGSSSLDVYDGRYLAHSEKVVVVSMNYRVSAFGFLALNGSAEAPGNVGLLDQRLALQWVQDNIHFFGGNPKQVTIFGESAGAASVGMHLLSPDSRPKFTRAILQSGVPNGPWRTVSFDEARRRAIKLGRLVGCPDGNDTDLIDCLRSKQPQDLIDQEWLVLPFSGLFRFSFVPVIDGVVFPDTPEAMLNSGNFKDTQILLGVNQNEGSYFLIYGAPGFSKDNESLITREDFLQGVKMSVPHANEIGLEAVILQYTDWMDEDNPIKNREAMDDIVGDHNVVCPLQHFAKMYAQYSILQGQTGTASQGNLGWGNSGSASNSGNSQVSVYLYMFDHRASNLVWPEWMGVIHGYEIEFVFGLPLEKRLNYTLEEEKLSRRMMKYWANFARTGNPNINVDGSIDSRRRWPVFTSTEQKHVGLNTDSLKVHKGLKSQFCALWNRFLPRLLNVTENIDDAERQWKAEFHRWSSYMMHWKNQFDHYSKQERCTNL

Acetylcholinesterase = Acetylcholinesterase (Electrophorus electricus, UniProt O42275); test: Inhibition of electric eel AChE using acetylthiocholine iodide as substrate measured every minute for fifteen minutes by Ellman's method
Acetylcholinesterase, sequence (O42275 whole entry): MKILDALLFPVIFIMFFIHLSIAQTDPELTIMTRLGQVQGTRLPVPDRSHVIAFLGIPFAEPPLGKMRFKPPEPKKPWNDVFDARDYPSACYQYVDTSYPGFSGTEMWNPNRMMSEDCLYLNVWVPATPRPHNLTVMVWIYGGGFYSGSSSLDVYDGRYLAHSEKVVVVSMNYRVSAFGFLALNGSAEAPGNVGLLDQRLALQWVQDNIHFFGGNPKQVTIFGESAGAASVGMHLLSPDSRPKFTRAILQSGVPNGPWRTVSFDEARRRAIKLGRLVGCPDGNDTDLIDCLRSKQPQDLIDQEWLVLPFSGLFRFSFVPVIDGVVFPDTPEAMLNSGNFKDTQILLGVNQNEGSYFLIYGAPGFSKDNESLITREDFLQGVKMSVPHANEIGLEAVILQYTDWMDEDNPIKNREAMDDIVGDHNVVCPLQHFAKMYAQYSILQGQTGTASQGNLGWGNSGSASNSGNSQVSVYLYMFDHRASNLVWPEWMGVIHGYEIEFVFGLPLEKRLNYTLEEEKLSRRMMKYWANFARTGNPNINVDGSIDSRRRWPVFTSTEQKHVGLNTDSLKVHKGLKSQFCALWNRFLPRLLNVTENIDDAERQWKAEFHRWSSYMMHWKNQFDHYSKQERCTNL

Row | Compound | inhibition [1] | pIC50 (Acetylcholinesterase)
1 | CO[C@H]1C=C[C@@]2(c3ccc(O)cc3)CCN[C@H]2C1 | inactive | 
2 | COc1cc([C@@H]2[C@H](O)CC=C3CCN(C)[C@H]32)cc(OC)c1OC | inactive | 
3 | CNc1ccc(COC)cc1-c1cc2c(cc1CO)OCO2 |  | 5.05
